# From ChEMBL document CHEMBL1149563 (Bioorg Med Chem Lett, 2007)
# How the values were obtained:
# Rattus norvegicus [1] = experiment: Effect on […] in castrated rat at 10 mg/kg, po after 14 days relative to intact rat; format: functional
# [2] = Oral bioavailability in rat at 10 mg/kg; format: ADME, organism-based; conditions: in vivo
# Rattus norvegicus [3] = experiment: Effect on levator ani muscle weight in castrated rat at 10 mg/kg, po after 14 days relative to intact rat; format: functional
# Androgen receptor [4] = molecular target: T1, Androgen receptor (Mus musculus, UniProt P19091); experiment: Agonist activity at androgen receptor in mouse C2C12 cells by receptor transactivation assay; format: functional, cell-based
# T1 sequence (P19091 whole entry): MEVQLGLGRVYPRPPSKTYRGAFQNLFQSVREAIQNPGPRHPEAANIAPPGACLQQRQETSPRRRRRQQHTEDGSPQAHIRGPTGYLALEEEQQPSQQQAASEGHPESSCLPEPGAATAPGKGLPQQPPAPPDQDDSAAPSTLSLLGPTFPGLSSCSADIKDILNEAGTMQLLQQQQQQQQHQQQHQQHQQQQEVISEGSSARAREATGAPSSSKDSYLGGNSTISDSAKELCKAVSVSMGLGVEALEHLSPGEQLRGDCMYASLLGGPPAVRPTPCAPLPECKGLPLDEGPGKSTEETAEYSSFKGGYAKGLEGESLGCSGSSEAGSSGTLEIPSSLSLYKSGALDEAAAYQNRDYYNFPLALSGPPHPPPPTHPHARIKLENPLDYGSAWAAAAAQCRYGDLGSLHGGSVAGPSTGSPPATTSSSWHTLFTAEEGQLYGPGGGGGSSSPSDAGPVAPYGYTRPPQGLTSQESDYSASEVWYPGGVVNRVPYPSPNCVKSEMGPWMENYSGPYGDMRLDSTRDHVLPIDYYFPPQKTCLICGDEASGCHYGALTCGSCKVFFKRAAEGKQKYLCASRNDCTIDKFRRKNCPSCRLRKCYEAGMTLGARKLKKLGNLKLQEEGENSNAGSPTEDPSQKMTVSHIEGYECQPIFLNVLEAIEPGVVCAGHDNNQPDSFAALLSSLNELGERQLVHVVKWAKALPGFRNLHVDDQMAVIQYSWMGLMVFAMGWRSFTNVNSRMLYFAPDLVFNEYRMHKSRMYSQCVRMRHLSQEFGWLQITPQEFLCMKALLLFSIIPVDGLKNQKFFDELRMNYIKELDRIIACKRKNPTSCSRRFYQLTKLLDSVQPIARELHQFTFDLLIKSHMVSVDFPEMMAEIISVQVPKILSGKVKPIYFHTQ
# [5] = Half life in rat at 5 mg/kg, iv or 10 mg/kg, po; format: ADME, organism-based; conditions: in vivo
# [6] = Clearance in rat at 5 mg/kg, iv or 10 mg/kg, po; format: ADME, organism-based; conditions: in vivo
# [7] = Cmax in rat at 5 mg/kg, iv or 10 mg/kg, po; format: ADME, organism-based; conditions: in vivo
# Androgen receptor [8] = molecular target: T2, Androgen receptor (Homo sapiens, UniProt P10275); experiment: Displacement of [3H]DHT from human androgen receptor in MDA453 cells; format: cell-based
# T2 sequence (P10275 whole entry): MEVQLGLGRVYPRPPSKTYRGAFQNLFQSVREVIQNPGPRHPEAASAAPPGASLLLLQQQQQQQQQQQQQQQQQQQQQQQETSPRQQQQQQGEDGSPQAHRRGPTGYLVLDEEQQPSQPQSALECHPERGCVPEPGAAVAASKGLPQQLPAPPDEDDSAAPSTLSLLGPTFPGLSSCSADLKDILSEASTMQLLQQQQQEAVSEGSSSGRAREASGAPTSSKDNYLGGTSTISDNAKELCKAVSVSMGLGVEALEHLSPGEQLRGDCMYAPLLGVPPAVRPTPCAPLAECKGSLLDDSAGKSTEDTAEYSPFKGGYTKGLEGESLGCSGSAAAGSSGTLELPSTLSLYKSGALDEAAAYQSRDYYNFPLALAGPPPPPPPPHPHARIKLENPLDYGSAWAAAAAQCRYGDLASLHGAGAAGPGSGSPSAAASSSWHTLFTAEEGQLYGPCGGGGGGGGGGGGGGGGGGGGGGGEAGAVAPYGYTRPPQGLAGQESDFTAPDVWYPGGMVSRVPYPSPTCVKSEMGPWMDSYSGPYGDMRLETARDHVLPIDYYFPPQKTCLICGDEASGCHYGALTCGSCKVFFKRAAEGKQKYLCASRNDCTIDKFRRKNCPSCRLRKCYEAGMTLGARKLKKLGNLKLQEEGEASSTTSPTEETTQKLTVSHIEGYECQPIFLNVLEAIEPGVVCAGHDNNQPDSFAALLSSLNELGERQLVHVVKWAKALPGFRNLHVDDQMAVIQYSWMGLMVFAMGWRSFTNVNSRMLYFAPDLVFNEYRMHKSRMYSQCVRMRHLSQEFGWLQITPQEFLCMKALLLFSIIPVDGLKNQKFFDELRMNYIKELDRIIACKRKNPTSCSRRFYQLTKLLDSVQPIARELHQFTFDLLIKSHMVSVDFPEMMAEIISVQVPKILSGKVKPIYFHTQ
# Rattus norvegicus [9] = experiment: Effect on […] in castrated rat at 0.3 mg/kg, sc after 14 days relative to intact rat; format: functional; conditions: route subcutaneous
# Rattus norvegicus [10] = experiment: Effect on levator ani muscle weight in castrated rat at 0.3 mg/kg, sc after 14 days relative to intact rat; format: functional; conditions: route subcutaneous
# Androgen receptor [11] = molecular target: T1, Androgen receptor
# Description: Antagonist activity at androgen receptor in mouse C2C12 cells by receptor transactivation assay
SMILES,EC50 (Androgen receptor [4]) [nM],Ki (Androgen receptor [8]) [nM],other results
Cc1c(N2C(=O)[C@@H]3[C@H](O)CCN3S2(=O)=O)ccc(C#N)c1Cl,11.9,0.45,Activity (Rattus norvegicus [1]): 10%; bioavailability [2]: 53%; Activity (Rattus norvegicus [3]): 70%; half-life [5]: 54 min; clearance [6]: 12.8 mL/min/kg; Cmax [7]: 8.4 µM
Cc1c(N2C[C@@H]3[C@@H](O)CCN3S2(=O)=O)ccc(C#N)c1Cl,,189,
CCC(=O)O[C@H]1CC[C@H]2[C@@H]3CCC4=CC(=O)CC[C@]4(C)[C@H]3CC[C@]12C [TESTOSTERONE PROPIONATE],2.8,0.25,Activity (Rattus norvegicus [9]): 70%; Activity (Rattus norvegicus [10]): 70%
COC(=O)[C@@H]1[C@H](O)CCN1S(=O)(=O)c1ccc(C#N)c(Cl)c1C,> 3000,36,IC50 (Androgen receptor [11]): 278 nM
N#Cc1ccc(N2C(=O)[C@@H]3[C@H](O)CCN3C2=O)c2ccccc12,2.3,,
COC(=O)[C@@H]1[C@H](O)CCN1S(=O)(=O)Nc1ccc(C#N)c(Cl)c1C,7460,,
Cc1c(N2C(C)[C@@H]3[C@@H](O)CCN3S2(=O)=O)ccc(C#N)c1Cl (stereo not given in full),8960,20,
Cc1c(N2C(=O)[C@]3(C)[C@H](O)CCN3S2(=O)=O)ccc(C#N)c1Cl,1250,8.2,
Cc1c(N2C(=O)[C@@H]3[C@H](O)CCN3C2=O)ccc(C#N)c1Cl,0.44,,
Cc1c(N2C[C@@H]3[C@H](O)CCN3S2(=O)=O)ccc(C#N)c1Cl,7730,14,
Cc1c(N2C(=O)[C@@H]3C[C@H](O)CN3S2(=O)=O)ccc(C#N)c1Cl,3520,44,
Cc1c(NS(=O)(=O)N2CC[C@@H](O)[C@H]2C(=O)O)ccc(C#N)c1Cl,2.8,,
Cc1c(N2C(=O)[C@@H]3[C@@H](O)CCN3S2(=O)=O)ccc(C#N)c1Cl,2960,29,
